pIC50: −log10 of the molar value.
What follows are compounds tested against T1, Tyrosine-protein phosphatase non-receptor type 22 (Homo sapiens, UniProt Q9Y2R2) (assay: inhibition of human PTPN22 tyrosine phosphatase – biochemical, DiFMUP fluorescence, recombinant catalytic domain, 10 µM, primary screen (AID 606)).
T1 sequence (Q9Y2R2 whole entry): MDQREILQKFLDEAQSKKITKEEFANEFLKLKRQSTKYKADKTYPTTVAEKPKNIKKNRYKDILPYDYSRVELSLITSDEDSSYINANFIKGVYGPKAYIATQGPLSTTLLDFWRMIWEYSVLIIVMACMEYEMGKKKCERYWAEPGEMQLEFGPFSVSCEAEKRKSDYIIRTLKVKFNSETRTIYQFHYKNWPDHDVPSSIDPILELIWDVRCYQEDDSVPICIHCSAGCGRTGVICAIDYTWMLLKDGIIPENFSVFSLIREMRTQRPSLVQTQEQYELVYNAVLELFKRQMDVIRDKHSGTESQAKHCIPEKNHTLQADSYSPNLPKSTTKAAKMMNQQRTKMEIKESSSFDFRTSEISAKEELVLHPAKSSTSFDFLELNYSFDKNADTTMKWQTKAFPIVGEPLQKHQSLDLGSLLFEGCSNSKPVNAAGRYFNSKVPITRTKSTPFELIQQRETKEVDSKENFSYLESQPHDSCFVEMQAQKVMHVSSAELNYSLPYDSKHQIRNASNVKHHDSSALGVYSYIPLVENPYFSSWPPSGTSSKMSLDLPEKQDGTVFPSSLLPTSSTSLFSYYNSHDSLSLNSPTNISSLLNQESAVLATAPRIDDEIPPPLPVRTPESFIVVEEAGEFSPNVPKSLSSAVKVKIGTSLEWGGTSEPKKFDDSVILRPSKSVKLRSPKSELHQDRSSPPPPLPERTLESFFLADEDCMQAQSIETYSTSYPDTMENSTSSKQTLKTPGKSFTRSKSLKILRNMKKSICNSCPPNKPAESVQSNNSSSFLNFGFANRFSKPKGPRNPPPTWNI

How did the pIC50 turn out when `Cc1ccc2c(c1C)NC(C(=O)O)C1CC=CC21` (stereo unspecified) was run?
The pIC50 was 6.03.

With `CCn1nc(-c2ccccc2)nc2c(=O)n(C)c(=O)nc1-2` [1-Ethyl-6-methyl-3-phenyl-1H-pyrimido[5,4-e][1,2,4]triazine-5,7-dione] as the compound, how does the pIC50 read?
Its pIC50 is 5.78.

How did the pIC50 turn out when `CC(C)Cn1c(N)c(C(=O)COC(=O)c2cc(-c3ccco3)nc3ccccc23)c(=O)n(C)c1=O` [2-(2-furanyl)-4-quinolinecarboxylic acid [2-[4-amino-1-methyl-3-(2-methylpropyl)-2,6-dioxo-5-pyrimidinyl]-2-oxoethyl] ester] was run?
The pIC50 was 5.24.

How did the pIC50 turn out when `CCCCC[C@H](O)C=C[C@H]1C=CC(=O)[C@@H]1C/C=C\CCCC(=O)O` [(Z)-7-[(1R,5S)-2-oxidanylidene-5-[(E,3S)-3-oxidanyloct-1-enyl]cyclopent-3-en-1-yl]hept-5-enoic acid] was run?
Its pIC50 is 5.17.

How did the pIC50 turn out when `O=C1C=Cc2ccccc2/C1=C/NC12CN3CCN(CN(C3)C1)C2` [MLS000071484] was run?
The pIC50 was under 4.40.

`COc1ccc(Cn2c(C)nc3c(c2=O)c2nc4ccccc4nc2n3Cc2ccco2)cc1` [MLS000079944] was tested. Which pIC50 did it give?
The pIC50 was 5.75.

Reference: BindingDB's records for doi:10.7270/Q2Z899TZ (Columbia University Molecular Screening Center, 2007)
